# Tests used:
# Magel2 KO neonates = test: Injection of oxytocin or vasopressin in Magel2 KO neonates: rescue of feeding and survival; format: in vivo, mouse
# Description: Three to 5 hours after delivery, wild type pups or pups issued from a cross between an heterozygote (+/−) male with wild type females were temporally removed (10 min) from their mother, weighted and given a single s.c. (in the ventral region at the level of floating ribs) injection (20 μl) of isotonic saline or 2 μg oxytocin (Phoenix Pharmaceuticals. Inc., Catalog No. 051-01) dissolved in isotonic saline (20 μl). […] Following the same protocol, we injected vasopressin (Phoenix Pharmaceuticals. Inc., Catalog No. 065-07) at different doses. At P2, pups were scarified to be genotyped.
# The results obtained with the injection of SSR 126768A OTA let us think that we might restore a normal feeding behaviour in Magel2 KO newborns with an OT injection just after birth. Early neonatal manipulation of OT was reported in the literature without alterations of the postnatal development (Cushing, B. S., et Al., 2003; Yamamoto, Y., et al., 2004; Saito, O., et Al., 2007). Initially, 28 wild type newborns were injected with an isotonic saline (20 μl) and 4 of them died at P1. Another cohort of 28 wild type newborns, […] on hypothalamic nuclei one hour after the injection (Cushing, B. S., et Al., 2003; Yamamoto, Y., et al., 2004). We then decided to inject 2 μg of OT in Magel2 KO and wild type newborns, 3 to 5 hours after birth, the time when wild type newborns started to suckle but not the mutant neonates. […] The level of lethality is similar after an injection of saline solution (4/28 dead pups) or oxytocin (3/28 dead pups) and is in the range of lethality normally observed in wild type cohorts. In a second step, ten litters including a total of 37 wild type and 40 Magel2 KO neonates, were injected with an oxytocin solution. At P2, we observed that 95% (35/37) of wild type and 93% (37/40) of Magel2 mutant newborns survived with milk previously detected in their stomach at P1. In parallel, we controlled that the rescue of Magel2 KO neonates was specifically due to the oxytocin injection and not to the injection stress and/or handling of neonates. […]
# adult patients with PWS [1] = test: Tests evaluating the understanding of social codes (Sally and Ann, Cartoons, RMET); format: in vivo, human; conditions: 45 minutes after intranasal 24 UI
# Description: Forty-five minutes after the intranasal administration, three tests evaluating the understanding of social codes were administered, which lasted one hour. Conversely to the behavioural grid, there was no pre-administration evaluation. The Sally and Ann test assesses one's ability to understand simple situations by story-telling and pictures. Cartoons depicting more complex social situations designed for the evaluation of autistic children were also used (“Cartoons”, unpublished test). The “Reading the Mind in the Eyes” test (RMET) assesses the ability to read emotions from subtle affective facial expressions, especially in the eyes. A shortened test with 19 images from the 36-item revised version was chosen by the team psychologist. In these three tests, TOM is necessary to understand and analyse the social situations that are presented. Statistical analysis was performed using the Mann-Whiney test, the Wilcoxon test or the chi2 test.
# adult patients with PWS [2] = test: Eating behaviour scoring after intranasal administration; format: in vivo, human
# Source text: The behaviour of the patients was carefully monitored, scored daily by the team psychologist, and documented on the case report form for the two days before drug administration, on the half-day following administration (early effects) and over the two days following drug administration (late effects). Both the staff and the rater were unaware of treatment status. There are currently no validated grids that evaluate the specific behavioural features of patients with PWS that they particularly wanted to study, i.e. tendencies towards isolation, sadness, and depression, self-depreciation, self-mutilation, conflicts with others, disruptive behaviour, interest in friendship, interest in love affairs, and trust of others. […] The patients were well known to the team but the mean behavior status was re-evaluated during the first week of admission using the same grid. The behavioural features of the patients were scored as unchanged, moderately changed, or severely changed. […] Eating behaviour was also scored using three categories: usual, better than usual or worse, based on the analysis of each meal. The following were evaluated: amount of food intake per meal, amount of food requested per meal, duration of meal, and behaviour before/during/after the meal. To evaluate the early effect of OT, we analysed only the first meal after drug administration.
# adult patients with PWS [3] = test: Tolerance in the clinical pilot study; format: in vivo, human; conditions: single intranasal 24 UI
# Source text: The inventors designed a double-blind randomised, placebo-controlled pilot study (ClinicalTrials.gov Identifier: NCT01038570) to be conducted in a dedicated PWS centre, where patients are regularly admitted for one month and live in a controlled environment. Patients know they have no free access to food but no doubt about the time and the content of meals. For each stay, 16 patients with PWS are admitted and take part in daily planned occupational and physical group activities. They also receive medical care as needed and psychological support. The 24 patients included in this study (16 females, 8 males, median age 28.5 years [18.7 to 43.6], median BMI 43 kg/m2 [19.4 to 67.4]) were stratified on gender and IQ (median IQ=51 [45 to 75]). […] Patients as well as parents or caregivers gave their written consent prior to entering the study. Exclusion criteria were an abnormal ECG and other severe cardiovascular problems. Patients were well known to the team. Each pair of patients of the same gender and same IQ range was evaluated the same day. The two patients of the pair received either OT or placebo in a double-blind randomisation. Patients were included in the study over the course of three series of stays.
# Each patient received a single intranasal administration of either placebo (saline solution) or OT (Syntocinon®/-Spray, Novartis, Basel, Switzerland) with three puffs per nostril (24 UI). The dose of 24 UI is the most frequently reported in the literature. […] This nurse knew neither the patients nor the study.
structure (smiles),measurement,setting,value
CC[C@H](C)[C@@H]1NC(=O)[C@H](Cc2ccc(O)cc2)NC(=O)[C@@H](N)CSSC[C@@H](C(=O)N2CCC[C@H]2C(=O)N[C@@H](CC(C)C)C(=O)NCC(N)=O)NC(=O)[C@H](CC(N)=O)NC(=O)[C@H](CCC(N)=O)NC1=O [oxytocin],newborns survived at P2 with milk in stomach at P1,"Magel2 KO neonates; Magel2 mutant, 2 μg oxytocin s.c. 3 to 5 hours after birth, vehicle lethality 48.5% at P1",93%
same,rescue of the death rate due to the feeding deficit,"Magel2 KO neonates; one single injection, 3-5 hours after birth",efficiently rescue the death rate
same,patients who successfully completed the Sally and Ann test,"adult patients with PWS [1]; OT group n=12, placebo 50%, P=0.19",Eighty-three
same,Cartoons score,"adult patients with PWS [1]; OT vs placebo, P=0.56",3.75 (1-18)
same,total RMET score,"adult patients with PWS [1]; placebo 5.5 (1-11), P=0.18",7 (4-9)
same,"scores assessing eating behaviour, OT vs placebo group",adult patients with PWS [2]; intranasal 24 UI,No statistical difference
same,patients who did not feel hungry and slightly decreased their food intake,"adult patients with PWS [2]; over the two days following intranasal administration, five patients, placebo 10%",45%
same,Tolerance,adult patients with PWS [3],excellent
same,adverse event during the study,adult patients with PWS [3],No adverse event
same,effect on electrocardiogram and PSA,adult patients with PWS [3],no effect
